Results from patent US10004701B2, “Methods and compositions for treating infection” (UNIVERSITY OF ROCHESTER, priority 2012, dated 2018).
Structures can show the parent of a compound that is named as a salt. Where two headings read alike, the source gives them in different places.

Key:
Experiment in all cases: AK assay 384-well format, Prestwick library screening
E. coli = type: cell-based, Escherichia coli; conditions: 50 μM final drug concentration; for fold induction at 50 µM: Escherichia coli, 3 h
P. aeruginosa = type: cell-based, Pseudomonas aeruginosa; conditions: 50 μM final drug concentration; for fold induction at 50 µM: Pseudomonas aeruginosa, 3 h
E. cloacae = type: cell-based, Enterobacter cloacae; conditions: 50 μM final drug concentration; for fold induction at 50 µM: Enterobacter cloacae, 3 h
E. faecium = type: cell-based, Enterococcus faecium; conditions: 50 μM final drug concentration; for fold induction at 50 µM: Enterococcus faecium, 3 h
[1] = tested on: S. aureus strain USA300-0114; type: cell-based, Staphylococcus aureus; conditions: 50 μM final drug concentration; for fold induction at 50 µM: Staphylococcus aureus, USA300, 3 h
K. pneumoniae = type: cell-based, Klebsiella pneumoniae; conditions: 50 μM final drug concentration; for fold induction at 50 µM: Klebsiella pneumoniae, 3 h
[2] = tested on: A. baumannii strain 98-37-09; type: cell-based, Acinetobacter baumannii; conditions: 50 μM final drug concentration; for fold induction at 50 µM: Acinetobacter baumannii, 983709, 3 h
[3] = planktonic, cutoff for positive-scoring molecules 3-fold increase
[4] = planktonic, cutoff for positive 3-fold increase, read-out: AK-based Prestwick Library Screening Results, E. coli (fold increase in extracellular AK activity)
[5] = planktonic, cutoff for positive 3-fold increase, read-out: AK-based Prestwick Library Screening Results, P. aeruginosa (fold increase in extracellular AK activity)
[6] = planktonic, cutoff for positive 3-fold increase, read-out: AK-based Prestwick Library Screening Results, E. cloacae (fold increase in extracellular AK activity)
[7] = planktonic, cutoff for positive 3-fold increase, read-out: AK-based Prestwick Library Screening Results, E. faecium (fold increase in extracellular AK activity)
[8] = planktonic, cutoff for positive 3-fold increase, read-out: AK-based Prestwick Library Screening Results, S. aureus (fold increase in extracellular AK activity)
[9] = planktonic, cutoff for positive 3-fold increase, read-out: AK-based Prestwick Library Screening Results, K. pneumoniae (fold increase in extracellular AK activity)
[10] = planktonic, cutoff for positive 3-fold increase, read-out: AK-based Prestwick Library Screening Results, A. baumannii (fold increase in extracellular AK activity)
[11] = planktonic E. coli, cutoff for positive-scoring molecules 3-fold increase, read-out: AK-based Prestwick Library Screening Results, E. coli (increase in extracellular AK activity)
[12] = planktonic P. aeruginosa, cutoff for positive-scoring molecules 3-fold increase, read-out: AK-based Prestwick Library Screening Results, P. aeruginosa (increase in extracellular AK activity)
[13] = planktonic E. cloacae, cutoff for positive-scoring molecules 3-fold increase, read-out: AK-based Prestwick Library Screening Results, E. cloacae (increase in extracellular AK activity)
[14] = planktonic E. faecium, cutoff for positive-scoring molecules 3-fold increase, read-out: AK-based Prestwick Library Screening Results, E. faecium (increase in extracellular AK activity)
[15] = planktonic S. aureus, cutoff for positive-scoring molecules 3-fold increase, read-out: AK-based Prestwick Library Screening Results, S. aureus (increase in extracellular AK activity)
[16] = planktonic K. pneumoniae, cutoff for positive-scoring molecules 3-fold increase, read-out: AK-based Prestwick Library Screening Results, K. pneumoniae (increase in extracellular AK activity)
[17] = planktonic A. baumannii, cutoff for positive-scoring molecules 3-fold increase, read-out: AK-based Prestwick Library Screening Results, A. baumannii (increase in extracellular AK activity)

Cl.Cl.c1ccc2c3c([nH]c2c1)C1C2CCC(C4CCCNC42)N1CC3 (stereo not drawn) [Nitrarine dihydrochloride]
AK-based Prestwick Library Screening Results, E. coli (fold increase in extracellular AK activity) (E. coli; planktonic, […]): 1.2
AK-based Prestwick Library Screening Results, P. aeruginosa (fold increase in extracellular AK activity) (P. aeruginosa; [3]): 1.1
AK-based Prestwick Library Screening Results, E. cloacae (fold increase in extracellular AK activity) (E. cloacae; [3]): 1.4
AK-based Prestwick Library Screening Results, E. faecium (fold increase in extracellular AK activity) (E. faecium; [3]): 1.0
AK-based Prestwick Library Screening Results, S. aureus (fold increase in extracellular AK activity) [1, 3]: 1.3
AK-based Prestwick Library Screening Results, K. pneumoniae (fold increase in extracellular AK activity) (K. pneumoniae; [3]): 1.1
AK-based Prestwick Library Screening Results, A. baumannii (fold increase in extracellular AK activity) [2, 3]: 1.0

COc1cc([S+](C)[O-])ccc1-c1nc2ncccc2[nH]1 (stereo not drawn) [Sulmazole]
fold induction at 50 µM (E. coli; [4]): 0.3
fold induction at 50 µM (P. aeruginosa; [5]): 0.3
fold induction at 50 µM (E. cloacae; [6]): 0.3
fold induction at 50 µM (E. faecium; [7]): 0.9
fold induction at 50 µM [1, 8]: 0.4
fold induction at 50 µM (K. pneumoniae; [9]): 0.5
fold induction at 50 µM [2, 10]: 0.3

CC1(C)S[C@@H]2[C@H](NC(=O)[C@H](N)c3ccccc3)C(=O)N2[C@H]1C(=O)OC1OC(=O)c2ccccc21 (stereo partly drawn) [Talampicillin hydrochloride]
fold induction at 50 µM (E. coli; planktonic E. coli, […], read-out: AK-based Prestwick library screening result, E. coli (fold increase in extracellular AK activity)): 15.2
fold induction at 50 µM (P. aeruginosa; planktonic P. aeruginosa, […], read-out: AK-based Prestwick library screening result, P. aeruginosa (fold increase in extracellular AK activity)): 1.1
fold induction at 50 µM (E. cloacae; planktonic E. cloacae, […], read-out: AK-based Prestwick library screening result, E. cloacae (fold increase in extracellular AK activity)): 1.6
fold induction at 50 µM (E. faecium; planktonic E. faecium, […], read-out: AK-based Prestwick library screening result, E. faecium (fold increase in extracellular AK activity)): 1.4
fold induction at 50 µM ([1]; planktonic S. aureus, […], read-out: AK-based Prestwick library screening result, S. aureus (fold increase in extracellular AK activity)): 1.2
fold induction at 50 µM (K. pneumoniae; planktonic K. pneumoniae, […], read-out: AK-based Prestwick library screening result, K. pneumoniae (fold increase in extracellular AK activity)): 0.8
fold induction at 50 µM ([2]; planktonic A. baumannii, […], read-out: AK-based Prestwick library screening result, A. baumannii (fold increase in extracellular AK activity)): 0.8

CCCCNc1ccc(C(=O)OCCN(C)C)cc1 [Tetracaine hydrochloride]
fold induction at 50 µM (E. coli; [11]): 0.9
fold induction at 50 µM (P. aeruginosa; [12]): 0.8
fold induction at 50 µM (E. cloacae; [13]): 0.9
fold induction at 50 µM (E. faecium; [14]): 0.9
fold induction at 50 µM [1, 15]: 0.6
fold induction at 50 µM (K. pneumoniae; [16]): 0.6
fold induction at 50 µM [2, 17]: 0.8

COc1c(O)cc2c(c1O)[C@@H]1O[C@H](CO)[C@@H](O)[C@H](O)[C@H]1OC2=O [Bergenin monohydrate]
fold induction at 50 µM (E. coli; planktonic, cutoff for positive-scoring molecules 3-fold increase, read-out: AK-based Prestwick Library Screening Results, E. coli (fold increase in extracellular AK activity)): 0.7
fold induction at 50 µM (P. aeruginosa; planktonic, cutoff for positive-scoring molecules 3-fold increase, read-out: AK-based Prestwick Library Screening Results, P. aeruginosa (fold increase in extracellular AK activity)): 0.8
fold induction at 50 µM (E. cloacae; planktonic, cutoff for positive-scoring molecules 3-fold increase, read-out: AK-based Prestwick Library Screening Results, E. cloacae (fold increase in extracellular AK activity)): 1.1
fold induction at 50 µM (E. faecium; planktonic, cutoff for positive-scoring molecules 3-fold increase, read-out: AK-based Prestwick Library Screening Results, E. faecium (fold increase in extracellular AK activity)): 0.9
fold induction at 50 µM ([1]; planktonic, cutoff for positive-scoring molecules 3-fold increase, read-out: AK-based Prestwick Library Screening Results, S. aureus (fold increase in extracellular AK activity)): 0.9
fold induction at 50 µM (K. pneumoniae; planktonic, cutoff for positive-scoring molecules 3-fold increase, read-out: AK-based Prestwick Library Screening Results, K. pneumoniae (fold increase in extracellular AK activity)): 0.8
fold induction at 50 µM ([2]; planktonic, cutoff for positive-scoring molecules 3-fold increase, read-out: AK-based Prestwick Library Screening Results, A. baumannii (fold increase in extracellular AK activity)): 0.9

Fc1ccc(C(c2ccc(F)cc2)N2CCN(C/C=C/c3ccccc3)CC2)cc1 [Flunarizine dihydrochloride]
fold induction at 50 µM (E. coli; planktonic E. coli, 384-well, cutoff for positive-scoring molecules 3-fold increase, read-out: AK-based Prestwick Library Screening Results: E. coli (increase in extracellular AK activity)): 1.7
fold induction at 50 µM (P. aeruginosa; planktonic P. aeruginosa, 384-well, cutoff for positive-scoring molecules 3-fold increase, read-out: AK-based Prestwick Library Screening Results: P. aeruginosa (increase in extracellular AK activity)): 1.3
fold induction at 50 µM (E. cloacae; planktonic E. cloacae, 384-well, cutoff for positive-scoring molecules 3-fold increase, read-out: AK-based Prestwick Library Screening Results: E. cloacae (increase in extracellular AK activity)): 1.6
fold induction at 50 µM (E. faecium; planktonic E. faecium, 384-well, cutoff for positive-scoring molecules 3-fold increase, read-out: AK-based Prestwick Library Screening Results: E. faecium (increase in extracellular AK activity)): 1.3
fold induction at 50 µM ([1]; planktonic S. aureus, 384-well, cutoff for positive-scoring molecules 3-fold increase, read-out: AK-based Prestwick Library Screening Results: S. aureus (increase in extracellular AK activity)): 1.1
fold induction at 50 µM (K. pneumoniae; planktonic K. pneumoniae, 384-well, cutoff for positive-scoring molecules 3-fold increase, read-out: AK-based Prestwick Library Screening Results: K. pneumoniae (increase in extracellular AK activity)): 1.4
fold induction at 50 µM ([2]; planktonic A. baumannii, 384-well, cutoff for positive-scoring molecules 3-fold increase, read-out: AK-based Prestwick Library Screening Results: A. baumannii (increase in extracellular AK activity)): 2.6

c1ccc(C2CN3CCSC3=N2)cc1 (stereo not drawn) [Tetramisole hydrochloride]
fold induction at 50 µM (E. coli; [4]): 1.3
fold induction at 50 µM (P. aeruginosa; [5]): 1.2
fold induction at 50 µM (E. cloacae; [6]): 1.4
fold induction at 50 µM (E. faecium; [7]): 1
fold induction at 50 µM [1, 8]: 1.1
fold induction at 50 µM (K. pneumoniae; [9]): 1.1
fold induction at 50 µM [2, 10]: 1.4

CNCC(O)c1ccc(O)cc1 (racemic) [(+,−)-Synephrine]
AK-based Prestwick library screening result, E. coli (fold increase in extracellular AK activity) (E. coli; planktonic E. coli, positive cutoff 3-fold increase): 1.3
AK-based Prestwick library screening result, P. aeruginosa (fold increase in extracellular AK activity) (P. aeruginosa; planktonic P. aeruginosa, positive cutoff 3-fold increase): 1.1
AK-based Prestwick library screening result, E. cloacae (fold increase in extracellular AK activity) (E. cloacae; planktonic E. cloacae, positive cutoff 3-fold increase): 1.3
AK-based Prestwick library screening result, E. faecium (fold increase in extracellular AK activity) (E. faecium; planktonic E. faecium, positive cutoff 3-fold increase): 1.1
AK-based Prestwick library screening result, S. aureus (fold increase in extracellular AK activity) ([1]; planktonic S. aureus, positive cutoff 3-fold increase): 1.0
AK-based Prestwick library screening result, K. pneumoniae (fold increase in extracellular AK activity) (K. pneumoniae; planktonic K. pneumoniae, positive cutoff 3-fold increase): 1.0
AK-based Prestwick library screening result, A. baumannii (fold increase in extracellular AK activity) ([2]; planktonic A. baumannii, positive cutoff 3-fold increase): 1.1

CC(=O)Oc1ccc(C(c2ccc(OC(C)=O)cc2)c2ccccn2)cc1 [Bisacodyl]
fold induction at 50 µM (E. coli; [11]): 0.6
fold induction at 50 µM (P. aeruginosa; [12]): 0.6
fold induction at 50 µM (E. cloacae; [13]): 0.9
fold induction at 50 µM (E. faecium; [14]): 1
fold induction at 50 µM [1, 15]: 0.5
fold induction at 50 µM (K. pneumoniae; [16]): 0.6
fold induction at 50 µM [2, 17]: 0.8
